According to PMC7686313, “Phase 1 study of mTORC1/2 inhibitor sapanisertib (TAK-228) in advanced solid tumours, with an expansion phase in renal, endometrial or bladder cancer” (British Journal of Cancer, 2020):
Like-named read-outs stand apart in the source and are kept apart here.

Assay: Plasma pharmacokinetics (LC-MS/MS)
Type: in vivo, human
Conditions: for Cmax / AUC(0-t) / half-life / Tmax: human, plasma, oral
Protocol: Peripheral blood was collected serially to quantify plasma levels of sapanisertib for PK analysis via validated liquid chromatography tandem mass spectrometry with an assay range of 1–1000 ng/mL (MicroConstants, San Diego, CA), during both dose-escalation and expansion phases. Blood samples were collected before each dose and 0.5, 1, 2, 4, 8 and 24 h after dosing on cycle 1, day 1 and cycle 2, day 1, in the dose-escalation phase. In the expansion phase, samples were collected predose and 2, 4 and 6 h postdose on cycle 1, day 1, and then predose and 2 h postdose on day 8, 15 or 22 of cycle 1.

CC(C)n1nc(-c2ccc3oc(N)nc3c2)c2c(N)ncnc21 [Sapanisertib]
Plasma accumulation with repeat dosing (any of the schedules): did not accumulate in plasma to any appreciable extent | Tmax, median (cycle 1, day 1, 2 mg): 2.0 h | Tmax, median (cycle 1, day 1, 4 mg): 2.0 h | AUC0–last [%CV] (cycle 1, day 1, 6 mg): 124.3 (NA) ng*h/mL | t½ (cycle 1, day 1, 6 mg): 6.8 h | Tmax, median (cycle 1, day 1, 7 mg): 1.5 h | Tmax, median (cycle 1, day 1, 9 mg): 1.1 h | Tmax, median (cycle 1, day 1, 12 mg): 2.0 h | Tmax, median (cycle 1, day 1, 15 mg): 2.0 h | AUC0–last [%CV] (cycle 1, day 1, 16 mg): 124.9 (NA) ng*h/mL | Tmax, median (cycle 2, day 1, QD 2 mg): 2.0 h | Tmax, median (cycle 2, day 1, QD 6 mg): 2.0 h | t½ (cycle 2, day 1, QDx3dQW 6 mg): 9.1 (NA) h | t½ (cycle 2, day 1, QDx3dQW 16 mg): 6.6 (2.29) h | Tmax, median (cycle 2, day 1, QDx5dQW 10 mg): 2.0 h | Tmax, median (cycle 2, day 1, QDx5dQW 13 mg): 2.0 h | Cmax [%CV] (cycle 2, day 1, QW 7 mg): 65.8 (NA) ng/mL | Tmax, median (cycle 2, day 1, QW 7 mg): 1 h | Cmax [%CV] (cycle 2, day 1, QW 10 mg): 36.2 (NA) ng/mL | Tmax, median (cycle 2, day 1, QW 15 mg): 2.0 h | Tmax, median (cycle 2, day 1, QW 40 mg): 2.0 h | Cmax (2 mg, cycle 1, day 1, 2 mg): 13.5 ng/mL | AUC(0-t) (2 mg, cycle 1, day 1, 2 mg, read-out: AUC0–last [%CV]): 65.4 ng·h/mL | Cmax (2 mg, cycle 2, day 1, QD 2 mg): 15.6 ng/mL | AUC(0-t) (2 mg, cycle 2, day 1, QD 2 mg, read-out: AUC0–24h [%CV]): 185 ng·h/mL | half-life (2 mg, cycle 2, day 1, QD 2 mg, read-out: t½ (converted)): 8.1 h | Cmax (4 mg, cycle 1, day 1, 4 mg): 19.1 ng/mL | AUC(0-t) (4 mg, cycle 1, day 1, 4 mg, read-out: AUC0–24h [%CV]): 178 ng·h/mL | AUC(0-t) (4 mg, cycle 1, day 1, 4 mg, read-out: AUC0–last [%CV]): 63.2 ng·h/mL | half-life (4 mg, cycle 1, day 1, 4 mg, read-out: t½ (converted)): 7.1 h | Cmax (4 mg, cycle 2, day 1, QD 4 mg): 20.3 ng/mL | AUC(0-t) (4 mg, cycle 2, day 1, QD 4 mg, read-out: AUC0–24h [%CV]): 281 ng·h/mL | AUC(0-t) (4 mg, cycle 2, day 1, QD 4 mg, read-out: AUC0–last [%CV]): 61.9 ng·h/mL | Tmax (4 mg, cycle 2, day 1, QD 4 mg, read-out: Tmax, median): 3.8 h | half-life (4 mg, cycle 2, day 1, QD 4 mg, read-out: t½ (converted)): 10.3 h | Cmax (6 mg, cycle 1, day 1, 6 mg): 50.8 ng/mL | AUC(0-t) (6 mg, cycle 1, day 1, 6 mg, read-out: AUC0–24h [%CV]): 354 ng·h/mL | Cmax (6 mg, cycle 2, day 1, QD 6 mg): 36.9 ng/mL | AUC(0-t) (6 mg, cycle 2, day 1, QD 6 mg, read-out: AUC0–24h [%CV]): 327 ng·h/mL | half-life (6 mg, cycle 2, day 1, QD 6 mg, read-out: t½ (converted)): 7.3 h | Cmax (6 mg, cycle 2, day 1, QDx3dQW 6 mg): 59.2 ng/mL | AUC(0-t) (6 mg, cycle 2, day 1, QDx3dQW 6 mg, read-out: AUC0–24h [%CV]): 777 ng·h/mL | Tmax (6 mg, cycle 2, day 1, QDx3dQW 6 mg, read-out: Tmax, median): 4 h | Cmax (7 mg, cycle 1, day 1, 7 mg): 46.7 ng/mL | AUC(0-t) (7 mg, cycle 1, day 1, 7 mg, read-out: AUC0–24h [%CV]): 327 ng·h/mL | half-life (7 mg, cycle 1, day 1, 7 mg, read-out: t½ (converted)): 6.9 h | Cmax (7 mg, cycle 2, day 1, QD 7 mg): 51.3 ng/mL | AUC(0-t) (7 mg, cycle 2, day 1, QD 7 mg, read-out: AUC0–24h [%CV]): 351 ng·h/mL | Tmax (7 mg, cycle 2, day 1, QD 7 mg, read-out: Tmax, median): 4 h | half-life (7 mg, cycle 2, day 1, QD 7 mg, read-out: t½ (converted)): 5.63 h | Cmax (7 mg, cycle 2, day 1, QDx5dQW 7 mg): 49.7 ng/mL | AUC(0-t) (7 mg, cycle 2, day 1, QDx5dQW 7 mg, read-out: AUC0–24h [%CV]): 362 ng·h/mL | half-life (7 mg, cycle 2, day 1, QDx5dQW 7 mg, read-out: t½ (converted)): 6.7 h | AUC(0-t) (7 mg, cycle 2, day 1, QW 7 mg, read-out: AUC0–24h [%CV]): 351 ng·h/mL | half-life (7 mg, cycle 2, day 1, QW 7 mg, read-out: t½ (converted)): 5.6 h | Cmax (9 mg, cycle 1, day 1, 9 mg): 75.9 ng/mL | AUC(0-t) (9 mg, cycle 1, day 1, 9 mg, read-out: AUC0–24h [%CV]): 596 ng·h/mL | half-life (9 mg, cycle 1, day 1, 9 mg, read-out: t½ (converted)): 7.5 h | Cmax (9 mg, cycle 2, day 1, QDx3dQW 9 mg): 83.1 ng/mL | AUC(0-t) (9 mg, cycle 2, day 1, QDx3dQW 9 mg, read-out: AUC0–24h [%CV]): 707 ng·h/mL | Tmax (9 mg, cycle 2, day 1, QDx3dQW 9 mg, read-out: Tmax, median): 2.1 h | half-life (9 mg, cycle 2, day 1, QDx3dQW 9 mg, read-out: t½ (converted)): 6.9 h | Cmax (10 mg, cycle 1, day 1, 10 mg): 48.4 ng/mL | AUC(0-t) (10 mg, cycle 1, day 1, 10 mg, read-out: AUC0–24h [%CV]): 342 ng·h/mL | AUC(0-t) (10 mg, cycle 1, day 1, 10 mg, read-out: AUC0–last [%CV]): 153 ng·h/mL | Tmax (10 mg, cycle 1, day 1, 10 mg, read-out: Tmax, median): 2.8 h | half-life (10 mg, cycle 1, day 1, 10 mg, read-out: t½ (converted)): 6.4 h | Cmax (10 mg, cycle 2, day 1, QDx5dQW 10 mg): 57 ng/mL | AUC(0-t) (10 mg, cycle 2, day 1, QDx5dQW 10 mg, read-out: AUC0–24h [%CV]): 366 ng·h/mL | half-life (10 mg, cycle 2, day 1, QDx5dQW 10 mg, read-out: t½ (converted)): 5.7 h | Tmax (10 mg, cycle 2, day 1, QW 10 mg, read-out: Tmax, median): 2.9 h | Cmax (12 mg, cycle 1, day 1, 12 mg): 99.5 ng/mL | AUC(0-t) (12 mg, cycle 1, day 1, 12 mg, read-out: AUC0–24h [%CV]): 730 ng·h/mL | half-life (12 mg, cycle 1, day 1, 12 mg, read-out: t½ (converted)): 7.4 h | Cmax (12 mg, cycle 2, day 1, QDx3dQW 12 mg): 113 ng/mL | AUC(0-t) (12 mg, cycle 2, day 1, QDx3dQW 12 mg, read-out: AUC0–24h [%CV]): 707 ng·h/mL | Tmax (12 mg, cycle 2, day 1, QDx3dQW 12 mg, read-out: Tmax, median): 3.7 h | half-life (12 mg, cycle 2, day 1, QDx3dQW 12 mg, read-out: t½ (converted)): 4.9 h | Cmax (13 mg, cycle 1, day 1, 13 mg): 93.6 ng/mL | AUC(0-t) (13 mg, cycle 1, day 1, 13 mg, read-out: AUC0–24h [%CV]): 953 ng·h/mL | Tmax (13 mg, cycle 1, day 1, 13 mg, read-out: Tmax, median): 2.1 h | half-life (13 mg, cycle 1, day 1, 13 mg, read-out: t½ (converted)): 8.7 h | Cmax (15 mg, cycle 1, day 1, 15 mg): 56.7 ng/mL | AUC(0-t) (15 mg, cycle 1, day 1, 15 mg, read-out: AUC0–24h [%CV]): 518 ng·h/mL | half-life (15 mg, cycle 1, day 1, 15 mg, read-out: t½ (converted)): 9.4 h | Cmax (15 mg, cycle 2, day 1, QW 15 mg): 64.9 ng/mL | AUC(0-t) (15 mg, cycle 2, day 1, QW 15 mg, read-out: AUC0–24h [%CV]): 604 ng·h/mL | Cmax (16 mg, cycle 1, day 1, 16 mg): 66.7 ng/mL | AUC(0-t) (16 mg, cycle 1, day 1, 16 mg, read-out: AUC0–24h [%CV]): 689 ng·h/mL | Tmax (16 mg, cycle 1, day 1, 16 mg, read-out: Tmax, median): 2.1 h | half-life (16 mg, cycle 1, day 1, 16 mg, read-out: t½ (converted)): 7 h | Cmax (16 mg, cycle 2, day 1, QDx3dQW 16 mg): 92.1 ng/mL | AUC(0-t) (16 mg, cycle 2, day 1, QDx3dQW 16 mg, read-out: AUC0–24h [%CV]): 744 ng·h/mL | Tmax (16 mg, cycle 2, day 1, QDx3dQW 16 mg, read-out: Tmax, median): 2.1 h | Cmax (20 mg, cycle 1, day 1, 20 mg): 154 ng/mL | AUC(0-t) (20 mg, cycle 1, day 1, 20 mg, read-out: AUC0–24h [%CV]): 1260 ng·h/mL | Tmax (20 mg, cycle 1, day 1, 20 mg, read-out: Tmax, median): 2.1 h | half-life (20 mg, cycle 1, day 1, 20 mg, read-out: t½ (converted)): 6.5 h | Tmax (20 mg, cycle 2, day 1, QW 20 mg, read-out: Tmax, median): 4 h | Cmax (30 mg, cycle 1, day 1, 30 mg): 162 ng/mL | AUC(0-t) (30 mg, cycle 1, day 1, 30 mg, read-out: AUC0–24h [%CV]): 1080 ng·h/mL | half-life (30 mg, cycle 1, day 1, 30 mg, read-out: t½ (converted)): 5.9 h | Cmax (30 mg, cycle 2, day 1, QW 30 mg): 133 ng/mL | AUC(0-t) (30 mg, cycle 2, day 1, QW 30 mg, read-out: AUC0–24h [%CV]): 1120 ng·h/mL | Tmax (30 mg, cycle 2, day 1, QW 30 mg, read-out: Tmax, median): 4 h | half-life (30 mg, cycle 2, day 1, QW 30 mg, read-out: t½ (converted)): 5.7 h | Cmax (40 mg, cycle 1, day 1, 40 mg): 172 ng/mL | AUC(0-t) (40 mg, cycle 1, day 1, 40 mg, read-out: AUC0–24h [%CV]): 1640 ng·h/mL | Tmax (40 mg, cycle 1, day 1, 40 mg, read-out: Tmax, median): 2.4 h | half-life (40 mg, cycle 1, day 1, 40 mg, read-out: t½ (converted)): 7.6 h | Cmax (40 mg, cycle 2, day 1, QW 40 mg): 232 ng/mL | AUC(0-t) (40 mg, cycle 2, day 1, QW 40 mg, read-out: AUC0–24h [%CV]): 2220 ng·h/mL | half-life (40 mg, cycle 2, day 1, QW 40 mg, read-out: t½ (converted)): 6.4 h | Tmax (range across all doses, read-out: Median Tmax): 1 to 2.8 h | half-life (range, 2–40 mg dose range, read-out: Mean plasma half-life): 5.9 to 9.4 h
